Source: patent US20200068890A1 (Person to Whom the Inventor is Obligated to Assign, priority 2017, published 2020)

How the values were obtained:
A. thaliana DHDPS = tested on: T1, A. thaliana DHDPS; test: DHDPS-DHDPR coupled assay, dose response inhibitor assay; type: biochemical, Arabidopsis thaliana
T1 construct: AtDHDPS|10|0.00008; no borders, domain or tags given

[1] = tested on: Gram-positive and Gram-negative bacterial species; test: Broth microdilution MIC, panel summary; type: cell-based; conditions: read-out: MIC values
Description: Assays were carried out by a broth microdilution method using a 96-well plate according to guidelines defined by the European Committee on Antimicrobial Susceptibility Testing as described here. Overnight cultures of strains were grown in tryptic soy broth (TSB) at 37° C. The overnight cultures were diluted to a concentration of 1×10^6 bacteria/ml (OD600=0.01) in TSB media. To each well on 96 well plates, 100 μl of bacterially infected media at a concentration of 1×10^6/ml and compounds at various concentrations were added. An uninfected control (i.e. no bacteria) was also included. The plates were incubated at 37° C. wrapped in parafilm for 20 hrs. The growth was assessed by measuring the absorbance at 600 nm. The minimum inhibitory concentration (MIC) was determined to be the lowest concentration of compound that inhibits visible bacterial growth.

[2] = tested on: human kidney cells (HEK293); test: MTT viability assay; conditions: for % Viability Remaining 1 / % Viability Remaining 2 / % Viability Remaining 3: 48 hrs; for toxicity to HEK293 cells (in words): HEK293, MTT, up to 400 μM (Defensin 100 μM)
Description: (§1) Cells were harvested and resuspended in growth media (5-10 ml) to count. Cells were diluted to the appropriate concentration (5×10^3), and seeded into 96-well plates as follows: (a) 50 μl of cells per well, (b) 100 μl of growth media in the Blank wells, (c) 100 μl PBS in outer wells (to prevent dehydration of media from the cells). Cells were incubated overnight at 37° C. (5% CO2).
(§2) Compounds were prepared as serial dilutions in growth media. Each treatment concentration was performed in triplicate. 50 μl/well of prepared compound was added to cells.
(§3) A no treatment triplicate (100% viability) was also included by adding 50 μl of growth media to cells. Plates were returned to the incubator for 48 hrs.
(§4) MTT powder in 1×PBS was prepared at 5 mg/ml and filter sterilised. MTT was added to serum-free media to a final concentration of 1 mg/ml. 100 μl of the MTT solution (1 mg/ml) was added to each well, including 0 μM and blank wells. Plates were incubated at 37° C. in incubator for 3 hrs. Following incubation, the media was removed from wells without disrupting the purple crystals formed. 100 μl of DMSO was added to each well using a multichannel pipette. The plates were shaken on the plate shaker until all the crystals have dissolved. The absorbance was measured at 570 nm using a plate reader. The data was analysed using Microsoft Excel. For each treatment concentration the average was calculated, the blank was subtracted and the cell viability was determined as a percentage of the no treatment control (DMSO vehicle control).

[3] = tested on: human liver cells (HepG2); test: MTT viability assay; conditions: for % viability 1 / % viability 2 / % viability 3: 48 hrs; for toxicity to HepG2 cells (in words): HepG2, MTT, up to 400 μM (Defensin 100 μM)
Description: as §1, §2, §3, §4

Row | SMILES | IC50 (A. thaliana DHDPS) | % Viability Remaining 1 ([2]; HEK293, 12.5 μM) | % Viability Remaining 2 ([2]; HEK293, 12.5 μM) | % Viability Remaining 3 ([2]; HEK293, 12.5 μM) | % Viability Remaining 1 ([2]; HEK293, 25 μM) | % Viability Remaining 2 ([2]; HEK293, 25 μM) | % Viability Remaining 3 ([2]; HEK293, 25 μM) | % Viability Remaining 1 ([2]; HEK293, 50 μM) | % Viability Remaining 2 ([2]; HEK293, 50 μM) | % Viability Remaining 3 ([2]; HEK293, 50 μM) | % Viability Remaining 1 ([2]; HEK293, 100 μM) | % Viability Remaining 2 ([2]; HEK293, 100 μM) | % Viability Remaining 3 ([2]; HEK293, 100 μM) | % Viability Remaining 1 ([2]; HEK293, 200 μM) | % Viability Remaining 2 ([2]; HEK293, 200 μM) | % Viability Remaining 3 ([2]; HEK293, 200 μM) | % Viability Remaining 1 ([2]; HEK293, 400 μM) | % Viability Remaining 2 ([2]; HEK293, 400 μM) | % Viability Remaining 3 ([2]; HEK293, 400 μM) | toxicity to HEK293 cells (in words) [2] | other results
1 | COc1ccccc1/C=C1\SC(=O)N(CC(=O)O)C1=O [Compound 3, (Z)-2-(5-(2-Methoxybenzylidene)-2,4-dioxothiazolidin-3-yl)acetic Acid] | 70.5 µM | 73.4% | 104% | 99.0% | 100% | 86.3% | 83.8% | 78.5% | 80.4% | 92.2% | 84.2% | 93.0% | 91.6% | 82.5% | 89.8% | 94.3% | 72.3% | 106% | 85.6% | effectively nontoxic | MIC [1]: > 64 µg/mL; % viability 1 ([3]; HepG2, 12.5 μM): 110%; % viability 2 ([3]; HepG2, 12.5 μM): 104%; % viability 3 ([3]; HepG2, 12.5 μM): 92.2%; % viability 1 ([3]; HepG2, 25 μM): 80.2%; % viability 2 ([3]; HepG2, 25 μM): 86.4%; % viability 3 ([3]; HepG2, 25 μM): 91.4%; % viability 1 ([3]; HepG2, 50 μM): 106.4%; % viability 2 ([3]; HepG2, 50 μM): 89.9%; % viability 3 ([3]; HepG2, 50 μM): 98.7%; % viability 1 ([3]; HepG2, 100 μM): 80.2%; % viability 2 ([3]; HepG2, 100 μM): 89.3%; % viability 3 ([3]; HepG2, 100 μM): 82.2%; % viability 1 ([3]; HepG2, 200 μM): 84.2%; % viability 2 ([3]; HepG2, 200 μM): 96.5%; % viability 3 ([3]; HepG2, 200 μM): 92.9%; % viability 1 ([3]; HepG2, 400 μM): 76.2%; % viability 2 ([3]; HepG2, 400 μM): 87.9%; % viability 3 ([3]; HepG2, 400 μM): 87.5%; toxicity to HepG2 cells (in words) [3]: effectively nontoxic
2 | COc1ccc(/C=C2\SC(=O)N(CC(=O)O)C2=O)cc1 [Compound 5, (Z)-2-(5-(4-Methoxybenzylidene)-2,4-dioxothiazolidin-3-yl)acetic Acid] | 46.9 µM | 105% | 103% | 85.0% | 105% | 103% | 85.0% | 92.3% | 101% | 90.8% | 106% | 103% | 82.8% | 82.7% | 86.0% | 84.9% | 96.4% | 91.3% | 89.1% | effectively nontoxic | % viability 1 ([3]; HepG2, 12.5 μM): 111%; % viability 2 ([3]; HepG2, 12.5 μM): 107%; % viability 3 ([3]; HepG2, 12.5 μM): 105%; % viability 1 ([3]; HepG2, 25 μM): 111%; % viability 2 ([3]; HepG2, 25 μM): 106%; % viability 3 ([3]; HepG2, 25 μM): 105%; % viability 1 ([3]; HepG2, 50 μM): 102%; % viability 2 ([3]; HepG2, 50 μM): 91.9%; % viability 3 ([3]; HepG2, 50 μM): 104%; % viability 1 ([3]; HepG2, 100 μM): 111%; % viability 2 ([3]; HepG2, 100 μM): 105%; % viability 3 ([3]; HepG2, 100 μM): 84.8%; % viability 1 ([3]; HepG2, 200 μM): 78.7%; % viability 2 ([3]; HepG2, 200 μM): 110%; % viability 3 ([3]; HepG2, 200 μM): 94.4%; % viability 1 ([3]; HepG2, 400 μM): 82.1%; % viability 2 ([3]; HepG2, 400 μM): 84.9%; % viability 3 ([3]; HepG2, 400 μM): 92.5%; toxicity to HepG2 cells (in words) [3]: effectively nontoxic
